Patent US7063966B2, “Chimeric G protein coupled receptors” (SRI International, priority 2001, dated 2006)
Read-outs that look alike come from different tables or passages of the source.

What was measured:
Type in all cases: cell-based
[1] = target: T1, Edg1/3(i3ct) (Homo sapiens, UniProt P21453, DEL241-247/F237N/K239N/K250R/K256R/L235V/L252M/N315S/R231S/R234K/R238H/T230S/T236A); test: Dose response of intracellular calcium mobilization (FLIPR) in HTC4 cells expressing chimeric Edg1/3(i3ct)
T1 construct: DNA encoding the full length Edg 1/3(i3ct) chimera was then produced in a tertiary PCR reaction; expressed in transfected cells

[2] = target: Edg 1 (Homo sapiens, UniProt P21453); test: Intracellular calcium mobilization (FLIPR) in HTC4 cells expressing Edg 1; settings: 100 nM S1P, FIG. 2
Description: (§1) Media from GP-293 cells was collected and filtered through a […] PES syringe filter to remove cell debris. Polybrene (hexadimethrine bromide, Sigma) was added to each virus laden supernatant to a final concentration of […]. After removing the culture medium from the target cells, the virus-laden medium was used to overlay the host cell line HTC4 (rat hepatoma cell line; from Ed Goetzl, UCSF). Following infection, cells were incubated for 18–24 hours. Cells resistant to antibiotic (Geneticin, G418, […], Sigma) were selected. Clonal populations were selected from the pooled stable cells using a standard limiting dilution technique (adapted from “Antibodies: A Laboratory Manual”; 1988, Harlow, E. and Lane, D., Cold Spring Harbor Laboratory, New York).
(§2) HTC4 rat hepatoma cells stably transfected with Edg 1, Edg 1/3(ct), Edg1/3(i3ct) or Edg1/3(i2i3ct) according to Example 6.7 were plated on 384-well plates and loaded with a calcium dye loading kit (Molecular Devices, Sunnyvale, Calif.) for 1 hour at room temperature. Cells were then placed on FLIPR^384 (Molecular Devices, Sunnyvale, Calif.) and excited by an argon laser at 488 nm. In this assay, fluorescence changes over basal levels indicate an increase in intracellular calcium. In FIG. 2, basal fluorescence is at 0 (arbitrary units). […]

[3] = target: T1, Edg1/3(i3ct); test: Intracellular calcium mobilization (FLIPR) in HTC4 cells expressing Edg1/3(i3ct), single concentration; settings: 100 nM S1P, FIG. 2
Description: as §1, §2

[4] = target: T2, Edg1/3(i2i3ct) (Homo sapiens, UniProt P21453, DEL241-247/F158H/F237N/G154A/H152Y/I144L/K150R/K239N/K250R/K256R/L147I/L151P/L235V/L252M/N153D/N156K/N157R/N315S/R231S/R234K/R238H/S155N/T230S/T236A/Y143H); test: Intracellular calcium mobilization (FLIPR) in HTC4 cells expressing Edg1/3(i2i3ct); settings: 100 nM S1P, FIG. 2
T2 construct: DNA encoding the full length Edg 1/3(i2i3ct) chimera was then produced in a tertiary PCR reaction; expressed in transfected cells
Description: as §1, §2

[5] = target: T3, Edg 1/3(ct) (Homo sapiens, UniProt P21453, N315S); test: Intracellular calcium mobilization (FLIPR) in HTC4 cells expressing Edg 1/3(ct); settings: 100 nM S1P, FIG. 4
T3 construct: DNA encoding the full length Edg 1/3(ct) chimera was produced in a secondary PCR reaction; expressed in transfected cells
Description: as §1, §2

[6] = target: T4, Edg5/3(i3ct) (Homo sapiens, UniProt O95136, A221R/A225S/D222K/F113S/H220S/INS224NHNN/K233R/L229M/M223V/P226E/Q227R/R217K/T228S); test: Intracellular calcium mobilization (FLIPR) in HTC4 cells expressing Edg5/3(i3ct); settings: 100 nM S1P, FIG. 5
T4 construct: DNA encoding the full length Edg 5/3(i3ct) chimera was then produced in a tertiary PCR reaction; expressed in transfected cells
Description: as §1
(§3) HTC4 rat hepatoma cells stably transfected with Edg5/3(i3ct) and Edg8/4(ct) according to Example 6.7 were plated on 384-well plates and loaded with a calcium dye loading kit (Molecular Devices, Sunnyvale, Calif.) for 1 hour at room temperature. Cells were then placed on FLIPR^384 (Molecular Devices, Sunnyvale, Calif.) and excited by an argon laser at 488 nm. In this assay, fluorescence changes over basal levels indicate an increase in intracellular calcium. […] The cells were contacted with 100 nM of the Edg 5 and Edg 8 agonist sphingosine-1-phosphate (S1P) 50 seconds after the start of the assay.

[7] = target: T5, Edg8/4(ct) (Homo sapiens, UniProt Q9H228); test: Intracellular calcium mobilization (FLIPR) in HTC4 cells expressing Edg8/4(ct); settings: 100 nM S1P, FIG. 5
T5 construct: DNA encoding the full length Edg 8/4(ct) chimera was produced in a secondary PCR reaction; expressed in transfected cells
Description: as §1, §3

T1 sequence (P21453 with tags, fused parts or gaps with the stated changes): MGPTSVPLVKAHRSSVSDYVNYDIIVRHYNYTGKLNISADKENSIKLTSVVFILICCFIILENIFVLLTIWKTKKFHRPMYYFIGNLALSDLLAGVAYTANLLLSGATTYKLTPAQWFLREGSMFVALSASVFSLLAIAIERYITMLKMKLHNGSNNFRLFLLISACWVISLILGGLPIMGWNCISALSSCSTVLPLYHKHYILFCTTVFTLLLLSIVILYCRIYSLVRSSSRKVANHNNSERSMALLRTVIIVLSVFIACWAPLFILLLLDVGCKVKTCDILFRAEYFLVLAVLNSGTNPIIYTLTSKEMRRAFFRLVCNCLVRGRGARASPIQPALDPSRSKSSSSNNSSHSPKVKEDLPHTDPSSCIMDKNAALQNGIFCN
T4 sequence (O95136 with tags, fused parts or gaps with the stated changes): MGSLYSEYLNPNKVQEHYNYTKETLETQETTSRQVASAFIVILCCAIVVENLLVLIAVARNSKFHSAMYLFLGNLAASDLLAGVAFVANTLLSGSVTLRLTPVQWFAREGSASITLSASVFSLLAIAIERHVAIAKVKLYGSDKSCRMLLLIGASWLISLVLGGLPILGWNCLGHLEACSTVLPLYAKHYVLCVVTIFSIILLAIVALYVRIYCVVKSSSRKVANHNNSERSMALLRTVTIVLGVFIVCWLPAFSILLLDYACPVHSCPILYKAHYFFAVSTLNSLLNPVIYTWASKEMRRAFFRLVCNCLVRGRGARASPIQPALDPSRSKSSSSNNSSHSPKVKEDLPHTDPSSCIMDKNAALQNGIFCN
T3 sequence (P21453 with tags, fused parts or gaps N315S): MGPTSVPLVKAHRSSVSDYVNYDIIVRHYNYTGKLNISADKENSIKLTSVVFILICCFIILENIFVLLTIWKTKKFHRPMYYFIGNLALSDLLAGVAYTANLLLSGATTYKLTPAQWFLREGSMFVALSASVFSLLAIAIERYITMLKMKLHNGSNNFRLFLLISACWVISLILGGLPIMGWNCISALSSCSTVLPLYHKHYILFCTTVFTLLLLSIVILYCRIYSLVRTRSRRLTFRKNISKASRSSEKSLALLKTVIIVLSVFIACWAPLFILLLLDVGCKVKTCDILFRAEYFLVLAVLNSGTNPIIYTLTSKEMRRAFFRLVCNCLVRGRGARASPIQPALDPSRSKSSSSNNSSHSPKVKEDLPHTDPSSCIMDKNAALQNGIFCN
Edg 1, sequence (P21453 whole entry): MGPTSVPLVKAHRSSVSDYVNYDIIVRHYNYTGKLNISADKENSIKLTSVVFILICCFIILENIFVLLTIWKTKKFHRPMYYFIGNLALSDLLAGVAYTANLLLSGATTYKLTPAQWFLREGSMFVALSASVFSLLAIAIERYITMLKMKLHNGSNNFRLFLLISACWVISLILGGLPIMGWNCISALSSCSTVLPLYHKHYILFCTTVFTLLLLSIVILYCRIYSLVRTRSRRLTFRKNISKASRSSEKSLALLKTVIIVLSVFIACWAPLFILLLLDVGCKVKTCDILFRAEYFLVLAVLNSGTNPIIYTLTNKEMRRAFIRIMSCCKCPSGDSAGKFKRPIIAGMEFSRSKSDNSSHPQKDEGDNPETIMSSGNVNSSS
T2 sequence (P21453 with tags, fused parts or gaps with the stated changes): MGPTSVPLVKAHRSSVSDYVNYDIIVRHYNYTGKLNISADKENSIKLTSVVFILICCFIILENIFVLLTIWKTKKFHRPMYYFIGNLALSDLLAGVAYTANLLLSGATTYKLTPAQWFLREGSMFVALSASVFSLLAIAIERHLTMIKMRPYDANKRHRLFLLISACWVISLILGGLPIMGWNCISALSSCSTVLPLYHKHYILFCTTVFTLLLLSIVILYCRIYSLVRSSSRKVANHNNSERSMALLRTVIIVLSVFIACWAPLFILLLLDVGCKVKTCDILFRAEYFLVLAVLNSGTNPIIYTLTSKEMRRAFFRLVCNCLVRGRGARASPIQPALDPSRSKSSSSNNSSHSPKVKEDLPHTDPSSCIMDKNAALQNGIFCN
T5 sequence (Q9H228 with tags, fused parts or gaps): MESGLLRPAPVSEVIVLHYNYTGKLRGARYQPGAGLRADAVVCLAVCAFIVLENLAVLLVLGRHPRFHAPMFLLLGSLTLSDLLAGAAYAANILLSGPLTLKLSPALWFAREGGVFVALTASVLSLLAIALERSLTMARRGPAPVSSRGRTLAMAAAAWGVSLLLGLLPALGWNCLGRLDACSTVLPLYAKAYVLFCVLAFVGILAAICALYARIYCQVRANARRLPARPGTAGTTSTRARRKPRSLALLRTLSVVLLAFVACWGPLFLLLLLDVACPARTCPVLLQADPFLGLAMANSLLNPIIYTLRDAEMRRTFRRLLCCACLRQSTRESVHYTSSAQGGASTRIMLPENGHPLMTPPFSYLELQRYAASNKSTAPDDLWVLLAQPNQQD

CCCCCCCCCCCCC/C=C/[C@@H](O)[C@@H](N)COP(=O)(O)O [S1P, sphingosine-1-phosphate]
EC50 [1]: ~10 nM
change in intracellular calcium [2]: no change in intracellular calcium
change in intracellular calcium [3]: significant change in intracellular calcium
change in intracellular calcium [4]: significant change in intracellular calcium
intracellular calcium mobilization [5]: functional, although not as robust as Edg1/3(i3ct) or Edg1/3(i2i3ct)
intracellular calcium mobilization [6]: mobilize intracellular calcium
intracellular calcium mobilization [7]: mobilize intracellular calcium

CCCCCCCCCCCCCCC[C@@H](O)[C@@H](N)COP(=O)(O)O [dihydro S1P, dihydro sphingosine-1-phosphate]
EC50 ([1]; HTC4 rat hepatoma cells stably transfected with Edg1/3(i3ct), FIG. 3, read-out: EC50 of intracellular calcium mobilization): ~10 nM
